Results: paper PMC11258883 (Protein Science : A Publication of the Protein Society, 2024)

Target: T1, MenD (Escherichia coli, UniProt P17109)
T1 sequence (P17109 1-556): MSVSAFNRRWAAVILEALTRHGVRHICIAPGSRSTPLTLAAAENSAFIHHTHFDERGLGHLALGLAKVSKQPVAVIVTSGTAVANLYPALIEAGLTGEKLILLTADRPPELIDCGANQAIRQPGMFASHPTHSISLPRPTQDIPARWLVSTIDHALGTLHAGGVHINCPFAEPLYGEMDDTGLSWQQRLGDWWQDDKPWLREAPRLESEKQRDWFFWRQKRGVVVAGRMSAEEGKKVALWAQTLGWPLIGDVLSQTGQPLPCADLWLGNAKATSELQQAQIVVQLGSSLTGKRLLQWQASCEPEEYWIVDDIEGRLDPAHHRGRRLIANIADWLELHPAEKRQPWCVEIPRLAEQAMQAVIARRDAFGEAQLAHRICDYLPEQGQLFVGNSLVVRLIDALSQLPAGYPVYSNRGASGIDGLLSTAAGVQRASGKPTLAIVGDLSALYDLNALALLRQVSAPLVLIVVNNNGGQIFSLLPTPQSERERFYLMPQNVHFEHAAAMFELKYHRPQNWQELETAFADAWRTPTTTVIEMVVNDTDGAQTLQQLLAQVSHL
Assay: MenD activity assay, OD278 decrease
Assay type: biochemical
Conditions: 66 nM MenD, 50 μM thiamine pyrophosphate, 660 μM 2-ketoglutarate, 5 mM MgSO4, pH 8.0; chorismate:isochorismate equilibrium mixture

Q: `C=C(O[C@H]1C=CC=C(C(=O)O)[C@@H]1O)C(=O)O` [isochorismate] was tested. Which “MenD activity assay, OD278 decrease” value did it give?
A: The value was “initial velocities were measured as decrease in OD278 upon MenD consumption of isochorismate”.
